Blank lines part the entries; values can stand above or below the molecule they belong to.
Key:
human DIO2 = molecular target: T1, human DIO2 (Homo sapiens, UniProt Q92813); experiment: Thyroid hormone deiodinase activity (T3 production from T4, T3 RIA) in disrupted COS-7 cells with DIO2 expression plasmid pTB2249; type: biochemical; details: FIG. 4c
T1 construct: expressed in transfected cells; host or cells: COS-7 cells, transiently transfected with pTB2249 (pcDNA3.1 backbone), sonicated to disrupted cells
T1 sequence (Q92813 1-273): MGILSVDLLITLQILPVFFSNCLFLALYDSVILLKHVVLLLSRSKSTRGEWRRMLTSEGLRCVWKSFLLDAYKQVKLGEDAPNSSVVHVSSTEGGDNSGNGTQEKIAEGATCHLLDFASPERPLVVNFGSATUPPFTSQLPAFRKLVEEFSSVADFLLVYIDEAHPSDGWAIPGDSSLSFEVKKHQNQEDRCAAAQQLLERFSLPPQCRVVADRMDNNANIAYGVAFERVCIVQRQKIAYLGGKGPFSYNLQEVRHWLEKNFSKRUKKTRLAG
Description: (§1) Using human thyroid-derived cDNA (Marathon Ready cDNA; Clontech) as a template, the following sequences were amplified by PCR: the amino acid coding sequence (cds) of human DIO1 (type 1 thyroid hormone deiodinase) using primer 1 (SEQ ID NO: 17) and primer 2 (SEQ ID NO: 18); DIO1 selenocystein insertion sequence (SECIS) using primer 3 (SEQ ID NO: 19) and primer 4 (SEQ ID NO: 20); human DIO2 cds using primer 5 (SEQ ID NO: 21) and primer 6 (SEQ ID NO: 22); and DIO2 SECIS (Buettner et al., 1998) using primer 7 (SEQ ID NO: 23) and primer 8 (SEQ ID NO: 24).
(§2) The resultant DNAs for human DIO1 cds and human DIO2 cds were inserted into pcDNA3.1 (Invitrogen) individually to thereby obtain plasmids pTB2240 and pTB2242. Further, the resultant DNAs for human DIO1 SECIS and human DIO2 SECIS were inserted into pCR2.1 (Invitrogen) individually to thereby obtain plasmids pTB2241 and pTB2244. DIO1 SECIS and DIO2 SECIS were cut out with restriction enzymes Sca I and Not I (Takara Shuzo) and introduced into DIO1 or DIO2 coding sequence-inserted plasmid pretreated with restriction enzymes Eco RV and Not I (Takara Shuzo) to thereby construct DIO1 expression plasmid pTB2248 and DIO2 expression plasmid pTB2249.
(§3) COS-7 cells (3×10^5) were plated in 6 cm petri dishes. […]

[1] = molecular target: human DIO1 (type 1 thyroid hormone deiodinase) (Homo sapiens, UniProt P49895); details: 1 mM PTU, T4 concentration 5 μM, 37° C. one hour; FIG. 4b
Description: as §1, §2, §3

[2] = test system: Normal human articular chondrocytes of knee (NHAC-kn); experiment: Induction of alkaline phosphatase activity in normal human articular chondrocytes of knee by T3; type: cell-based; details: NHAC-kn cells, 0.05-50 nM T3, 6 days; FIG. 2
Description: Normal human articular chondrocytes of knee (NHAC-kn; Clonetics) were plated on gelatin-coated 24-well plates (Iwaki) at 2×10^5 cells/well and cultured in DMEM high glucose medium (Gibco) containing 1 μg/ml insulin, 1 μg/ml transferin, 1 ng/ml selenious acid (these components were contained in ITS; BD Bioscience), 1 mg/ml BSA, 50 μg/ml ascorbic acid phosphate magnesium salt n-hydrate (Wako) and 5 mM β-glycerophosphate in a CO2 incubator under 5% CO2 at 37° C. with addition of 0.05-50 nM T3 (triiodothyronine) (Sigma) if necessary. After 6 days, the culture broth was removed from cells and 200 μl of 10 mM Tris-HCl (pH 7.4) containing 0.1% Triton X-100 was added to each well. Then, cells were shaken at 4° C. for 1 hour on a horizontal shaker to thereby extract proteins from the cell layer. The alkaline phosphatase (AP) activity of the extract was determined from the yield of p-nitrophenol using p-nitrophenylphosphate as a substrate (Sigma). The protein content in the extract was measured with BCA protein assay reagent (Pierce) to thereby calculate the AP activity per a specific amount of protein.

[3] = test system: Normal human articular chondrocytes of knee (NHAC-kn); experiment: Induction of MMP13 gene expression in normal human articular chondrocytes of knee by T3; type: cell-based; details: NHAC-kn cells, 0.1-10 nM T3, 6 days; FIG. 3
Description: Normal human articular chondrocytes of knee (NHAC-kn; Clonetics) were plated on gelatin-coated 96-well plates (Iwaki) at 2×10^5 cells/well and cultured in DMEM high glucose medium (Gibco) containing 1 μg/ml insulin, 1 μg/ml transferin, 1 ng/ml selenious acid (these components were contained in ITS; BD Bioscience) and 1 mg/ml BSA, and supplemented with 5 mM β-glycerophosphate (Sigma), 50 μg/ml ascorbic acid phosphate magnesium salt n-hydrate (Wako) and, if necessary, 0.1-10 nM T3 (triiodothyronine) (Sigma), in a CO2 incubator under 5% CO2 at 37° C. After 6 days, RNA was extracted from cells using RNeasy (Qiagen) according to the attached protocol. Using the total RNA as a template, cDNA was synthesized from random primers with TaqManreverse transcription reagent (Applied Biosystems). Subsequently, 2 μl of the reaction solution containing cDNA was mixed with a 2 μl reaction solution containing 0.34 μM of two primers (SEQ ID NO: 15 and SEQ ID NO: 16) and 1×PCR Master Mix (Applied Biosystems) and subjected to PCR. […]
The PCR was performed with ABI7700 sequence detector (Applied Biosystems). The number of copies of MMP13 cDNA was measured by real-time monitoring the amount of the PCR product. The number of copies of β-actin cDNA was also measured in the same manner using TaqMan β-actin control reagent (Applied Biosystems) and used as internal standard. […]

Sequence of human DIO1 (type 1 thyroid hormone deiodinase) (P49895 whole entry): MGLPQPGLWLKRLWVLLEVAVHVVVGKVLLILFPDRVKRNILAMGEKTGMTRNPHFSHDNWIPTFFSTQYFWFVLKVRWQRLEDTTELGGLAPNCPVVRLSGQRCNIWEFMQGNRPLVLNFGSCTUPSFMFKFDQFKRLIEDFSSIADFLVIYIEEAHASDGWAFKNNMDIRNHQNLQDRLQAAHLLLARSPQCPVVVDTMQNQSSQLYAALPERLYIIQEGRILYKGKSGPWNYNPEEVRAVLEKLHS

Compound: N[C@@H](Cc1ccc(Oc2cc(I)c(O)c(I)c2)c(I)c1)C(=O)O [rT3, riverse triiodothyronine]
inhibition of DIO2 activity of pTB2249 (T3 production) (human DIO2; rT3 5 μM, competition with T4, 37° C. one hour): partially inhibited

inhibition of DIO1 activity (T3 production) [1]: completely inhibited
influence on DIO2 activity of pTB2249 (T3 production) (human DIO2; 1 mM PTU, 37° C. one hour): influenced little
Compound: CCCc1cc(=O)[nH]c(=S)[nH]1 [PTU, propylthiouracil]

Compound: N[C@@H](Cc1cc(I)c(Oc2ccc(O)c(I)c2)c(I)c1)C(=O)O [T3, triiodothyronine]
alkaline phosphatase (AP) activity of cell layer extract per amount of protein [2]: induced in a T3 concentration-dependent manner
mRNA of MMP13 (number of copies of MMP13 cDNA normalized with β-actin) [3]: induced in a T3 concentration-dependent manner

Source: patent publication US20050171012A1, “Preventives/remedies for bone/joint diseases” (TAKEDA CHEMICAL INDUSTRIES, LTD., priority 2001, published 2005)
